Patent US9918983B2, “Suicidal LSD1 inhibitors targeting SOX2-expressing cancer cells” (THE BOARD OF REGENTS OF THE NEVADA SYSTEM OF HIGHER …, priority 2013, dated 2018)

Assays:
[1] = tested on: TP63 and KRT6A; assay: TP63 and KRT6A mRNA by real-time RT-PCR in NCI-H520 cells; format: cell-based, human; details: 50 μM, 30 hours
Procedure: (§1) Total RNA was extracted using TRIZOL reagent (TaKaRa) and complementary DNA was generated according to instructions in the PrimeScript 1st strand cDNA Synthesis Kit (TaKaRa) as described previously (Wang, J., et al. (2011) Cancer Research 71, 7238-7249). The cDNAs were diluted to 1/20 and 1 μL of each diluted sample was used as template for each sample. Real-time quantitative PCR was performed on an ABI Prism 7300 sequence detection system (Applied Biosystems) using SYBR Green (TaKaRa) according to the manufacturer's instructions. PCR amplification of the housekeeping gene β-Actin was performed as a control. Experiments for specific silencing or induction of gene expression were repeated at least three times. The real-time PCR primers of human genes are described in Table 3 above.
(§2) Left panels: lung carcinoma NCI-H520, A549, and H1299 cells were either treated with 50 μM CBB1003 for 30 hours or were transfected with Luc, LSD1, or Sox2 specific siRNAs for 48 hours as indicated. […] The statistical differences between experimental and control groups were analyzed by one-way ANOVA (*: p<0.05 and **: p<0.01). Right panels: the ablation efficiency of LSD1 and Sox2 siRNAs was examined.

[2] = tested on: TP63 and KRT6A; assay: TP63 and KRT6A mRNA by real-time RT-PCR in A549 cells; format: cell-based, human; details: 50 μM, 30 hours
Procedure: as §1, §2

[3] = tested on: ES-2 cells; assay: Cell growth/viability (MTT, microscopy); format: cell-based, human
Procedure: (§3) Lung, breast, ovarian, and other carcinoma cells were either obtained from American Type Culture Collection (ATCC) or from the DTP and DCTD Tumor Repository of National Cancer Institute (the NCI-60 cancer cell line panel), operated by Charles River Laboratory, Inc., as listed in Table 1. They were cultured according to instructions and treated with various concentrations of LSD1 inhibitors for 30-36 hours for mRNA analysis by quantitative real time RT-PCR or for 30-48 hours for protein analysis and the cell viability assays using Western blotting or microscopy and MTT assays as described previously (Wang, J., et al. (2011) Cancer Research 71, 7238-7249).
Alternatively, cell viability assays were conducted as previously described (Wang, J., et al. (2011) Cancer Research 71, 7238-7249). […] Dimethylsulfoxide (DMSO) was used as a solvent control. MTT was added to a final concentration of 0.5 mg/mL and cells were re-incubated for 4 hours. After removing the medium, 200 μL DMSO was added to dissolve formazan, followed by incubation for 10 minutes, and absorbance was measured at 490 nm by a Bio Red microplate reader. All assays were performed in triplicates for each concentration. The cell viability rate was calculated as the relative percentage of MTT absorption as follows: % cell viability=(mean experimental absorbance/mean control absorbance)×100.
(§4) Table 8 below lists activity of CBB3001 (compound 10) in Sox2-negative (ES-2) and Sox2-expressing (PA-1 and T47D) cancer cells determined in a cell-based assay as described herein (see also FIG. 3A-C).

[4] = tested on: Sox2; assay: Sox2 protein level by western blotting in carcinoma cells; format: cell-based, human; design: dose or concentration left out as unconfirmed; details: indicated carcinoma cells, 30 hr
Source text: Log-phase growing cancer cells were directly lysed in a buffer containing 0.5% SDS. Proteins in the lysates were equalized and analyzed by Western blotting using antibodies against Sox2, LSD1, H3K4Me1, H3K4Me2, Oct4, and other proteins as described previously or in the figure descriptions (Wang, J., et al. (2011) Cancer Research 71, 7238-7249). For immunohistochemical staining, rabbit monoclonal anti-LSD1 (clone C69G12, cat. #2184) and anti-Sox2 (clone D6D9, cat. #3579) antibodies were obtained from Cell Signaling. Rabbit anti-Sox2 polyclonal antibodies were raised using the purified GST-Sox2 fusion protein as the antigen.
Referring to FIG. 11A, inactivation of LSD1 by LSD1 inhibitors or siRNAs caused the downregulation of Sox2. The indicated carcinoma cells were treated with […] of the LSD1 inhibitors CBB1007 and CBB1003 for 30 hr or with 50 nM of Luc or LSD1 siRNAs for 60 hr. The protein levels of LSD1, Sox2, Lin28, CUL1, and histone H3 were analyzed by western blotting.

[5] = tested on: PA-1 cells; assay: Cell growth/viability (MTT, microscopy); format: cell-based, human
Procedure: as §3
(§5) Alternatively, cell viability assays were conducted as previously described (Wang, J., et al. (2011) Cancer Research 71, 7238-7249). For the MTT assay, cells were seeded onto 96-well culture plates with a density of 2000-5000 cells/well, and incubated with CBB1003 or CBB1007 at various concentrations from 1 to 100 μM for 30-48 hours, depending cell growth rate. Dimethylsulfoxide (DMSO) was used as a solvent control. MTT was added to a final concentration of 0.5 mg/mL and cells were re-incubated for 4 hours. After removing the medium, 200 μL DMSO was added to dissolve formazan, followed by incubation for 10 minutes, and absorbance was measured at 490 nm by a Bio Red microplate reader. All assays were performed in triplicates for each concentration. The cell viability rate was calculated as the relative percentage of MTT absorption as follows: % cell viability=(mean experimental absorbance/mean control absorbance)×100.
as §4

[6] = tested on: G401 cells; assay: Cell growth/viability (MTT, microscopy); format: cell-based, human; details: 50 μM, 30 hours
Procedure: as §3
(§6) Alternatively, cell viability assays were conducted as previously described (Wang, J., et al. (2011) Cancer Research 71, 7238-7249). […] After removing the medium, 200 μL DMSO was added to dissolve formazan, followed by incubation for 10 minutes, and absorbance was measured at 490 nm by a Bio Red microplate reader. […] The cell viability rate was calculated as the relative percentage of MTT absorption as follows: % cell viability=(mean experimental absorbance/mean control absorbance)×100.
Referring to FIG. 10B, Sox2-expressing myelogenous leukemia and rhabdoid tumor cells were also sensitive to LSD1 inhibitors. […] The statistical differences between compound treated and control groups were analyzed by One-way ANOVA. *: p<0.05 and **: p<0.01.

[7] = tested on: BT-549 cells; assay: Cell growth/viability (MTT, microscopy); format: cell-based, human; details: BT549 cells, 50 μM, 30 hours
Procedure: as §3, §5

[8] = tested on: SKOV-3 cells; assay: Cell growth/viability (MTT, microscopy); format: cell-based, human; details: 50 μM, 30 hours
Procedure: as §3, §5

[9] = tested on: SK-BR-3 cells; assay: Cell growth/viability (MTT, microscopy); format: cell-based, human; details: 50 μM, 30 hours
Procedure: as §3, §5

[10] = tested on: IGROV-1 cells; assay: Cell growth/viability (MTT, microscopy); format: cell-based, human; details: 50 μM, 30 hours
Procedure: as §3, §5

[11] = tested on: HS38.T cells; assay: Cell growth/viability (MTT, microscopy); format: cell-based, human; details: 50 μM, 30 hours
Procedure: as §3, §5

[12] = tested on: MCF7 cells; assay: Cell growth/viability (MTT, microscopy); format: cell-based, human; details: 50 μM, 30 hours
Procedure: as §3, §5

[13] = tested on: T47D cells; assay: Cell growth/viability (MTT, microscopy); format: cell-based; details: Homo sapiens; Sox2-expressing T47D cancer cells
Procedure: as §3, §6, §4

[14] = molecular target: T1, LSD1 (Homo sapiens, UniProt O60341); assay: LSD1 activity (LSD1 IC50, Table 7, FIG. 2); format: cell-based
T1 construct: LSD1 activity determined in a cell-based assay as described herein; endogenous in cells
Procedure: For a typical deacetylation assay, 1 μg rHDAC1 or 1 μg immunoprecipitated endogenous HDAC1-protein A complexes (from two 10-cm dishes) was incubated with 0.4 μg H4K16ac peptide in the presence or absence of 50 μM CBB1007 or 2 μM MS-275 at 30° C. for 1 h. The percentages of deacetylated products were analyzed by mass spectrometry, and the data were analyzed by GraphPad Prism (version 5) software. The reaction products were analyzed by mass spectrometry to separate the peptide substrate (H4K16ac) and the product (H4K16), as previously described (Wang, J., et al. (2011) Cancer Research 71, 7238-7249). For a typical demethylation assay, 0.4 μg H3K4me2 substrate peptide was incubated individually with 1 μg recombinant LSD1 (rLSD1) or 1 μg immunoprecipitated LSD1-protein A complex in the presence or absence of 50 μM CBB1007 or 2 μM MS-275 at 30° C. for 1 h. The reaction products were analyzed by mass spectrometry to separate the products (H3K4me1 and H3K4) from the substrate (H3K4me2), as previously described (Wang, J., et al. (2011) Cancer Research 71, 7238-7249).
Table 7 below lists specific compounds and LSD1 activity determined in a cell-based assay as described herein (see also FIGS. 2A and 2B).

[15] = tested on: PA-1 cells; assay: Cell cycle analysis by FACS in PA-1 cells; format: cell-based, human; details: 5 μM RA for 3 days
Procedure: (§7) The fluorescence-activated cell sorting (FACS) and 3-(4,5-dimethyl-2-thiazolyl)-2,5-diphenyl-2H-tetrazolium bromide (MTT) assays were conducted as described previously (Lan, R., et al. (2012) Lab. Invest. 92, 1503-1514). To synchronize PA-1 and F9 cells at the G1/S phase transition, cells were treated with 2.5 mM thymidine for 12 h, released into fresh medium for 6 h, and blocked again with 2.5 mM thymidine for an additional 12 h. The cell cycle arrest was analyzed by FACS. For differentiation, F9 and PA-1 cells were seeded in 6-well plates at a density of 1×10^4 cells per well and supplemented with 5 μM RA for 3 days. Cells were then recultured in fresh medium without RA for another 2 days, and the cell cycle was analyzed on a BD FACSCalibur cell sorter using the CellQuest program (Becton, Dickinson, Mountain View, Calif.). The percentages of cells in G1, S, and G2/M phases were determined by the use of ModFit LT software.

[16] = tested on: OCT4, SOX2, FOXA2, BMP2; assay: Expression of pluripotency and differentiation genes in F9 cells; format: cell-based, mouse
Procedure: (§8) Alternatively, total RNA was extracted with the TRIzol reagent (Invitrogen), and cDNA was generated using a cloned avian myeloblastosis virus first-strand cDNA synthesis kit (TaKaRa). The mRNA levels of the target genes were quantified by realtime PCR using SYBR green (TaKaRa) in an ABI Prism 7300 real-time PCR system (Applied Biosystems). […] To synchronize PA-1 and F9 cells at the G1/S phase transition, cells were treated with 2.5 mM thymidine for 12 h, released into fresh medium for 6 h, and blocked again with 2.5 mM thymidine for an additional 12 h. The cell cycle arrest was analyzed by FACS. For differentiation, F9 and PA-1 cells were seeded in 6-well plates at a density of 1×10^4 cells per well and supplemented with 5 μM RA for 3 days. Cells were then recultured in fresh medium without RA for another 2 days, and the cell cycle was analyzed on a BD FACSCalibur cell sorter using the CellQuest program (Becton, Dickinson, Mountain View, Calif.). The percentages of cells in G1, S, and G2/M phases were determined by the use of ModFit LT software.

[17] = tested on: F9 cells; assay: Cell cycle analysis by FACS in F9 cells; format: cell-based, mouse; details: 5 μM RA for 3 days
Procedure: as §7

[18] = tested on: OCT4, SOX2, FOXA2, BMP2; assay: Expression of pluripotency and differentiation genes in PA-1 cells; format: cell-based, human
Procedure: as §8

N=C(N)c1ccc(C(=O)N2CCN(C(=O)c3cc(CN4CCN(C(=N)N)CC4)cc([N+](=O)[O-])c3)CC2)cc1 [CBB1003]
mRNA levels of TP63 and KRT6A [1]: down-regulated
mRNA levels of TP63 and KRT6A [2]: down-regulated
cell growth ([3]; ES-2 cells, 50 μM, 30 hours): not sensitive
Sox2 protein level [4]: downregulation
cell growth ([5]; PA-1 cells, 50 μM, 30 hours): sensitive
cell growth [6]: inhibited
cell growth [7]: not sensitive
cell growth [8]: sensitive
cell growth [9]: not sensitive
cell growth [10]: sensitive
cell growth [11]: not sensitive
cell growth [12]: sensitive

CC(C)(C)OC(=O)N[C@@H]1C[C@H]1c1ccc(OC(=O)OC(C)(C)C)cc1 [Compound 10, Tert-Butyl ((1R,2S)-2-(4-((Tert-Butoxycarbonyl)Oxy)Phenyl)Cyclopropyl)Carbamate]
IC50 ([3]; Homo sapiens, Sox2-negative ES-2 cancer cells): 310 µM
IC50 ([5]; Homo sapiens, Sox2-expressing PA-1 cancer cells): 15.2 µM
IC50 [13]: 22.1 µM
IC50 [14]: 21.2 µM

CC1=C(/C=C/C(C)=C/C=C/C(C)=C/C(=O)O)C(C)(C)CCC1 [RA, all-trans-retinoic acid]
cell cycle effect [15]: G1 cell cycle arrest
OCT4 and SOX2 levels [16]: reduction
genes for differentiation, such as FOXA2 and BMP2 [16]: induction
cell cycle effect [17]: G1 cell cycle arrest
OCT4 and SOX2 levels [18]: reduction
genes for differentiation, such as FOXA2 and BMP2 [18]: induction
